Source: patent US20260294770A1, “FORMULATIONS OF NARINGENIN” (DEBUT BIOTECHNOLOGY, INC., priority 2023, published 2026)

How the values were obtained:
[1] = system: C2CD4B; test: Downregulation of gene expression and/or activity, 1% naringenin: C2CD4B
Description: (§1) In certain embodiments, administration of a composition comprising naringenin leads to up-regulation of LCE5A, KRT77, ALOXE3, KRT1, HPGD, MUCL1, CASP14, WFDC12, KRT10, DNASE1L2, IL37, SERPINB12, HAL, UPK1A, CALML5, LCE2B, and/or MIR205. In certain embodiments, administration of a composition comprising naringenin leads to down-regulation of CCL11, CSF2, IL23A, IL11, BMP6, IL13RA2, C2CD4A, NR4A2, C2CD4B, FGF2, FARP4, GDF15, THBS1, HSPA1A, PTGS2, and/or DKK1. Tables 10 and 11 provide data for upregulation and downregulation respectively of certain genes after administration of compositions comprising 1% naringenin.
(§2) C2 calcium dependent domain containing 4B (C2CD4B) plays a role in the inflammatory response. In certain embodiments, downregulation of C2CD4B results in reduction in inflammation. In certain embodiments, the administration of composition comprising naringenin results in at least about 5 to about 15-fold downregulation of expression and/or activity of C2CD4B. In certain embodiments, the administration of composition comprising naringenin results in at least about ten (10) fold downregulation of expression and/or activity of C2CD4B.

[2] = system: BMP6; test: Downregulation of gene expression and/or activity, 1% naringenin: BMP6
Description: as §1
Bone morphogenetic protein 6 (BMP6) plays a role in wound healing. The protein encoded by this gene is a member of the TGFβ superfamily. Bone morphogenetic proteins are known for their ability to induce the growth of bone and cartilage. BMP6 may induce all osteogenic markers in mesenchymal stem cells. In certain embodiments, the administration of compositions comprising naringenin leads to downregulation of expression and/or activity of BMP6. […] In certain embodiments, this may also lead to anti-aging effect for the skin. In certain embodiments, the administration of composition comprising naringenin results in at least about 2 to about 20-fold downregulation of expression and/or activity of BMP6. […]

[3] = system: KRT10; test: Upregulation of gene expression and/or activity, 1% naringenin: KRT10
Description: as §1
Keratin 10 (KRT10) is also involved in keratin production. Keratin is involved in increasing the barrier strength and resilience of the skin. Keratin 10 is produced in keratinocytes in the outer layer of the skin (the epidermis). In the fluid-filled space inside these cells (the cytoplasm), the keratin 10 protein partners with a similar protein, keratin 1 (produced from the KRT1 gene), to form molecules called keratin intermediate filaments. These filaments assemble into strong networks that provide strength and resiliency to the skin and protect it from being damaged by friction and other everyday physical stresses. […]

[4] = system: IL13RA2; test: Downregulation of gene expression and/or activity, 1% naringenin: IL13RA2
Description: as §1
as §2, with “Interleukin 13 receptor subunit alpha 2 (IL13RA2) plays” for “C2 calcium dependent domain containing 4B (C2CD4B) plays”, “in recovery after stressor caused” for “in the”, “of IL13RA2 leads to improved recovery after inflammation caused by stressors.” for “of C2CD4B results in reduction in inflammation.”, “of IL13RA2.” for “of C2CD4B.”

[5] = system: WFDC12; test: Upregulation of gene expression and/or activity, 1% naringenin: WFDC12
Description: as §1

[6] = system: KRT1; test: Upregulation of gene expression and/or activity, 1% naringenin: KRT1
Description: as §1
Keratin 1 (KRT1) plays a role in maintaining the skin strength and resiliency. Keratin 1 is produced in keratinocytes in the outer layer of the skin (the epidermis), including the skin on the palms of the hands and soles of the feet. The keratin 1 protein partners with another keratin protein, either keratin 9 or keratin 10, to form molecules called keratin intermediate filaments. These filaments assemble into strong networks that provide strength and resiliency to the skin and protect it from being damaged by friction and other everyday physical stresses. In certain embodiments, the administration of composition comprising naringenin results in upregulation of KRT1, which has a role in enhancing the strength and resiliency of the skin. […]

[7] = system: NR4A2; test: Downregulation of gene expression and/or activity, 1% naringenin: NR4A2
Description: as §1
as §2, with “Nuclear receptor subfamily 4 group A member 2 (NR4A2)” for “C2 calcium dependent domain containing 4B (C2CD4B)”, “NR4A2” for “C2CD4B”, “NR4A2.” for “C2CD4B.”

[8] = system: FABP4; test: Downregulation of gene expression and/or activity, 1% naringenin: FABP4
Description: as §1
Fatty acid binding protein 4 (FABP4) plays a role in metabolic inflammation from the fat tissue. FABP4 acts at the interface of metabolic and inflammatory pathways in adipocytes and macrophages and plays important roles in the development of insulin resistance, diabetes mellitus, and atherosclerosis. In certain embodiments, downregulation of FABP4 leads to reduced metabolic inflammation from the fat tissue signaling. In certain embodiments, the administration of composition comprising naringenin results in at least about 2 to about 10-fold downregulation of expression and/or activity of FABP4. In certain embodiments, the administration of composition comprising naringenin results in at least about five (5) fold downregulation of expression and/or activity of FABP4.

For `O=C1C[C@@H](c2ccc(O)cc2)Oc2cc(O)cc(O)c21` [naringenin, (2S)-5,7-Dihydroxy-2-(4-hydroxyphenyl)-2,3-dihydro-4H-1-benzopyran-4-one], the “fold downregulation in expression and/or activity of C2CD4B” value [1] was ~8 fold, the “Fold-increase (downregulation table) C2CD4B” value ([1]; negative = downregulation) was −8 fold and the “fold downregulation in expression and/or activity of BMP6” value [2] was ~11 fold. The “Fold-increase (downregulation table) BMP6” value ([2]; negative = downregulation) was −11 fold, the “Fold-increase in expression and/or activity of KRT10” value [3] was ~6 fold and the “fold downregulation in expression and/or activity of IL13RA2” value [4] was ~10 fold. The “Fold-increase (downregulation table) IL13RA2” value ([4]; negative = downregulation) was −10 fold, the “Fold-increase in expression and/or activity of WFDC12” value [5] was 11 fold and the “Fold-increase in expression and/or activity of KRT1” value [6] was ~7 fold. The “fold downregulation in expression and/or activity of NR4A2” value [7] was ~9 fold, the “Fold-increase (downregulation table) NR4A2” value ([7]; negative = downregulation) was −9 fold and the “fold downregulation in expression and/or activity of FABP4” value [8] was ~7 fold. The “Fold-increase (downregulation table) FABP4” value ([8]; negative = downregulation) was −7 fold.
